Measurements: patent publication US6294537A, “Compounds which are specific antagonists of the human NK3 receptor and their use as medicinal products and diagnostic tools” (Sanofi-Synthelabo, priority 1999, dated 2001)
pKi: −log10 of the molar value. Residues, ends and D or L forms follow the SMILES beside them. No end group written: not given here.

How the values were obtained:
[1] = molecular target: T1, NK1 receptors of rat cortex (Rattus norvegicus, UniProt P14600); assay: Binding of [125I]BH-SP to NK1 receptors of rat cortex; settings: read-out: inhibition constant Ki, rat cortex NK1 receptor
T1 construct: NK1 receptors of rat cortex; from tissue; host or cells: rat cortex
T1 sequence (P14600 whole entry): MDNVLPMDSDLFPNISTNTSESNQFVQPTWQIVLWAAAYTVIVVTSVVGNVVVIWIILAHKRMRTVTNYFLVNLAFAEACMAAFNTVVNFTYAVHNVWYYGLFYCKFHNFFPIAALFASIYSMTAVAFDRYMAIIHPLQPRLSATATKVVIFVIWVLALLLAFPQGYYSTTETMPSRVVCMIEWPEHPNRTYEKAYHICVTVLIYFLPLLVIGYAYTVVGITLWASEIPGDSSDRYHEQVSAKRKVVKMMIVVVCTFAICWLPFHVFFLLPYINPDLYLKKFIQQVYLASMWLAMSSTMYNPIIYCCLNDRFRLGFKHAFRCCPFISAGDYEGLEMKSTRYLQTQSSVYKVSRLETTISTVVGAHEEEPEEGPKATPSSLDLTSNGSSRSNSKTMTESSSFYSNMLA
Experimental: (§1) The affinity of the compounds of formula (I') for the tachykinin receptors was evaluated in vitro by several biochemical assays using radioligands:
1) The binding of [^125 I]BH-SP (substance P labeled with iodine 125 with the aid of the Bolton-Hunter reagent) to the NK1 receptors of rat cortex, of guinea pig ileum and of human lymphoblastic cells.
(§2) The assays were carried out according to X. Emonds-Alt et al. (Eur. J. Pharmacol., 1993, 250, 403-413).

human NK3 receptor = molecular target: T2, human NK3 receptor (Homo sapiens, UniProt P29371); assay: Binding of [125I]His[MePhe7]NKB to cloned human NK3 receptors expressed by CHO cells; settings: for pKi: cloned human NK3 receptors expressed by CHO cells, read-out: inhibition constant Ki, human NK3 receptor; for selectivity / specificity for the human NK3 receptor: from Ki at human NK3 versus rat NK2/NK1 receptors
T2 construct: expressed in transfected cells; host or cells: CHO cells
T2 sequence (P29371 1-465): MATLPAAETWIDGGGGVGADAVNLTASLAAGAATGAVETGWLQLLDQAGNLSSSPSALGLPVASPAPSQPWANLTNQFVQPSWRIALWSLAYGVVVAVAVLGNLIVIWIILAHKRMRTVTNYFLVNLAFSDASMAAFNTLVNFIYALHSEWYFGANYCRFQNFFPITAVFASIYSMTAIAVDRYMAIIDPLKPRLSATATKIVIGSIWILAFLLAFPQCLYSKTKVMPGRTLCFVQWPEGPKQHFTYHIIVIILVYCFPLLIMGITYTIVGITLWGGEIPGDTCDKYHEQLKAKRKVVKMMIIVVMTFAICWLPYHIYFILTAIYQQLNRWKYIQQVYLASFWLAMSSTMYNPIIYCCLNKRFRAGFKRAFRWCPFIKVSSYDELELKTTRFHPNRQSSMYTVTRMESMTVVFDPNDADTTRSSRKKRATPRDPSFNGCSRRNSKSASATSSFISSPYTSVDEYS
Experimental: as §1
(§3) 3) The binding of [^125 I]His[MePhe^7 ]NKB to the NK3 receptors of rat cerebral cortex, of guinea pig cerebral cortex and of gerbil cerebral cortex as well as to the cloned human NK3 receptors expressed by CHO cells (Buell et al., FEBS Letters, 1992, 299, 90-95).
as §2

[2] = molecular target: T3, NK2 receptor of rat duodenum (Rattus norvegicus, UniProt P16610); assay: Binding of [125I]His-NKA to NK2 receptors of rat duodenum; settings: read-out: inhibition constant Ki, rat duodenum NK2 receptor
T3 construct: NK2 receptors of rat duodenum; from tissue; host or cells: rat duodenum
T3 sequence (P16610 1-390): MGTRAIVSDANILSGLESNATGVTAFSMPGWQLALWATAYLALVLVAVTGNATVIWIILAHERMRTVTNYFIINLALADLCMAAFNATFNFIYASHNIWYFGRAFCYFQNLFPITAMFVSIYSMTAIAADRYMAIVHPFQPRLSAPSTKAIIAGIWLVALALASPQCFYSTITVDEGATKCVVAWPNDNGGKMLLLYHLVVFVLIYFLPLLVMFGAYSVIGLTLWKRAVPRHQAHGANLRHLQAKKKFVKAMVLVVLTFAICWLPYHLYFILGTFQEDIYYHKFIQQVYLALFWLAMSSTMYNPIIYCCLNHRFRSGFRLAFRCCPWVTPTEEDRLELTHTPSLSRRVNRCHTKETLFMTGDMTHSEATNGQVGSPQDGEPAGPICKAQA
Experimental: as §1
2) The binding of [^125 I]His-NKA to the NK2 receptors of rat duodenum or of guinea pig ileum.
as §2

NK3 receptor [3] = assay: Rotating behavior induced in gerbils by intrastriatal senktide; assay type: in vivo; settings: gerbil; unilateral application in the striatum
Experimental: (§4) The compounds according to the present invention were also evaluated in vivo on two animal models.

NK3 receptor [4] = assay: Hypertension induced in guinea pigs by intravenous or intracerebroventricular senktide; assay type: in vivo; settings: guinea pig; intravenous or intracerebroventricular injection
Experimental: as §4

rat NK3 receptor [5] = settings: literature, J. Autonomic Pharmacol. 1993; cited from earlier work
rat NK3 receptor [6] = settings: Patent Application EP 512901; read-out: Ki, antagonizes the binding of eledoisin; cited from earlier work
[7] = molecular target: T4, NK3 receptors of rat cerebral cortex (Rattus norvegicus, UniProt P16177); assay: Binding of [125I]His[MePhe7]NKB to NK3 receptors of rat cerebral cortex; settings: read-out: inhibition constant Ki, rat NK3 receptor
T4 construct: NK3 receptors of rat cerebral cortex; from tissue; host or cells: rat cerebral cortex
T4 sequence (P16177 1-452): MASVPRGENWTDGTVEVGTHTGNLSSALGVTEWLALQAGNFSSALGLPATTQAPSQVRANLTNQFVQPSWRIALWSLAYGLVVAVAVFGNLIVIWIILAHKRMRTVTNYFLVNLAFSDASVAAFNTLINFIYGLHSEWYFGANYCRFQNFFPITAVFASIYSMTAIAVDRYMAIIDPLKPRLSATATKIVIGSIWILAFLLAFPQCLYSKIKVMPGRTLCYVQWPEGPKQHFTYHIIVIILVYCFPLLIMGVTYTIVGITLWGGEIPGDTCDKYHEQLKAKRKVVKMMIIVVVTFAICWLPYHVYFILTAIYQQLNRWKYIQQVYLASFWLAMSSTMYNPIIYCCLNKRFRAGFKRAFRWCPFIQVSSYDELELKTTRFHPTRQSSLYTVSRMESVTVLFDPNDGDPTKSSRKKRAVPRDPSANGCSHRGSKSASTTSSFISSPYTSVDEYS
Experimental: as §1, §3, §2

CN(CC(CCCN1CCC(O)(c2ccccc2)CC1)c1ccc(Cl)c(Cl)c1)C(=O)c1ccccc1.Cl (stereo not drawn) [Example 1, N-Methyl-N-[2-(3,4-dichlorophenyl)-5-(4-hydroxy-4-phenylpiperid-1-yl)pentyl]benzamide hydrochloride]
pKi [1]: 6.30
pKi (human NK3 receptor): 8.30
selectivity / specificity for the human NK3 receptor (human NK3 receptor): high specificity
pKi [2]: 6.30

CSCC[C@H](NC(=O)[C@H](CC(C)C)NC(=O)CNC(=O)[C@H](Cc1ccccc1)N(C)C(=O)[C@H](Cc1ccccc1)NC(=O)[C@H](CC(=O)O)NC(=O)CCC(=O)O)C(N)=O [senktide] (HELM PEPTIDE1{[O=C(O)CCC(=O)[*:2]].D.F.[meF].G.L.M.[am]}$$$$V2.0)
contralateral rotations induced by senktide (NK3 receptor [3]): strong contralateral rotations
hypertension induced by senktide (NK3 receptor [4]): induces a hypertension

[Trp^7, Ala^8 ]NKA: A peptide antagonist, weakly specific for rat NK3 receptor (HKTDSFWALM; ends and bridges not checked; UniProt P20366 98-107, looked up, variant V7W G8A)
specificity for rat NK3 receptor (rat NK3 receptor [5]): weakly specific

Cl.O=C1CCC(CCN2CCC(O)(c3ccccc3)CC2)(c2ccc(Cl)c(Cl)c2)CN1Cc1ccccc1 (stereo not drawn) [compound A, 5-[2-(4-hydroxy-4-phenylpiperid-1-yl)ethyl]-5-(3,4-dichlorophenyl)-1-benzylpiperid-2-one hydrochloride]
pKi (rat NK3 receptor [6]): 6.70
pKi [7]: 7.00
pKi (human NK3 receptor): 9.00
selectivity / specificity for the human NK3 receptor (human NK3 receptor): not selective
pKi [2]: 10.00
